Source: patent publication US10202361B2, “Pyridazinones as herbicides” (E I DU PONT DE NEMOURS AND COMPANY, priority 2014, dated 2019)

Columns and labels:
Experiment in all cases: Test C pre-/postemergence greenhouse herbicide test
Type in all cases: in vivo
[1] = tested on: nutsedge, yellow (yellow nutsedge, Cyperus esculentus); conditions: Preemergence; for pest or weed control at 31 g/ha: 31 g ai/ha; for pest or weed control at 62 g/ha: 62 g ai/ha; for Plant response rating, Nutsedge, Yellow: visual rating on scale 0 (no effect) to 100 (complete control), 13 to 15 d
Outline: (§1)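 Visual ratings, 0 = no effect, 100 = complete control, vs untreated controls at 13–15 d. Pre: seeds in loam/sand. Post: 2–18 cm plants (1–4 leaf), peat/vermiculite mix. Surfactant-containing solvent formulation; greenhouse.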

[2] = tested on: morningglory (Ipomoea coccinea); conditions: Preemergence; for Plant response rating: Morningglory; for Plant response rating, Morningglory: visual rating on scale 0 (no effect) to 100 (complete control), 13 to 15 d
Outline: as §1

corn (Zea mays) = conditions: Preemergence; for Plant response rating, Corn: visual rating on scale 0 (no effect) to 100 (complete control), 13 to 15 d; for plant injury at 31 g/ha: 31 g ai/ha; for plant injury at 62 g/ha: 62 g ai/ha
Outline: as §1

[3] = tested on: johnsongrass (Sorghum halepense); conditions: Preemergence; for Plant response rating, Johnsongrass: visual rating on scale 0 (no effect) to 100 (complete control), 13 to 15 d; for pest or weed control at 31 g/ha: 31 g ai/ha; for pest or weed control at 62 g/ha: 62 g ai/ha
Outline: as §1

[4] = tested on: barnyardgrass (Echinochloa crus-galli); conditions: Preemergence; for Plant response rating: Barnyardgrass; for Plant response rating, Barnyardgrass: visual rating on scale 0 (no effect) to 100 (complete control), 13 to 15 d
Outline: as §1

[5] = tested on: pigweed (Amaranthus retroflexus); conditions: Preemergence; for pest or weed control at 31 g/ha: 31 g ai/ha; for pest or weed control at 62 g/ha: 62 g ai/ha; for Plant response rating, Pigweed: visual rating on scale 0 (no effect) to 100 (complete control), 13 to 15 d
Outline: as §1

[6] = tested on: wheat (winter wheat, Triticum aestivum); conditions: Preemergence; for Plant response rating, Wheat: visual rating on scale 0 (no effect) to 100 (complete control), 13 to 15 d; for plant injury at 62 g/ha: 62 g ai/ha
Outline: as §1

[7] = tested on: waterhemp (common waterhemp, Amaranthus rudis); conditions: Preemergence; for Plant response rating, Waterhemp: visual rating on scale 0 (no effect) to 100 (complete control), 13 to 15 d; for Plant response rating: Waterhemp
Outline: as §1

[8] = tested on: galium (catchweed bedstraw, Galium aparine); conditions: Preemergence; for Plant response rating, Galium: visual rating on scale 0 (no effect) to 100 (complete control), 13 to 15 d; for pest or weed control at 31 g/ha: 31 g ai/ha; for pest or weed control at 62 g/ha: 62 g ai/ha
Outline: as §1

soybean (Glycine max) = conditions: Preemergence; for plant injury at 62 g/ha: 62 g ai/ha; for Plant response rating, Soybean: visual rating on scale 0 (no effect) to 100 (complete control), 13 to 15 d
Outline: as §1

[9] = tested on: lambsquarters (Chenopodium album); conditions: Preemergence
Outline: as §1

[10] = Cyperus, pre-emergence, Nutsedge, Yellow, read-out: Plant response rating
[11] = Zea mays, pre-emergence, Corn, read-out: Plant response rating
[12] = Sorghum halepense, pre-emergence, Johnsongrass, read-out: Plant response rating
[13] = Amaranthus retroflexus, pre-emergence, Pigweed, read-out: Plant response rating
[14] = Triticum aestivum, pre-emergence, Wheat, read-out: Plant response rating
[15] = pre-emergence, Galium, read-out: Plant response rating
[16] = Glycine max, pre-emergence, Soybean, read-out: Plant response rating

For `CCOc1cc(=O)n(-c2ccc(F)cc2)nc1C(O)c1ccnc(C(F)(F)F)c1` (stereo not drawn) [Compound 23, 5-ethoxy-2-(4-fluorophenyl)-6-[hydroxy[2-(trifluoromethyl)-4-pyridinyl]methyl]-3(2H)-pyridazinone], the pest or weed control at 31 g/ha [1, 10] was 0%, the pest or weed control at 62 g/ha [1, 10] was 0% and the “Plant response rating, Nutsedge, Yellow” value ([1]; 8 g ai/ha) was 0. For the same compound, the “Plant response rating, Nutsedge, Yellow” value ([1]; 16 g ai/ha) was 0, the Plant response rating ([2]; 31 g ai/ha) was 55 and the Plant response rating ([2]; 62 g ai/ha) was 98. The “Plant response rating, Morningglory” value ([2]; 8 g ai/ha) was 10, the “Plant response rating, Morningglory” value ([2]; 16 g ai/ha) was 20 and the “Plant response rating, Corn” value (corn (Zea mays); 8 g ai/ha) was 0. The “Plant response rating, Corn” value (corn (Zea mays); 16 g ai/ha) was 5, the plant injury at 31 g/ha (corn (Zea mays); [11]) was 5% and the plant injury at 62 g/ha (corn (Zea mays); [11]) was 15%. The “Plant response rating, Johnsongrass” value ([3]; 8 g ai/ha) was 0, the “Plant response rating, Johnsongrass” value ([3]; 16 g ai/ha) was 5 and the pest or weed control at 31 g/ha [3, 12] was 5%. It also gave a pest or weed control at 62 g/ha [3, 12] of 10%, a Plant response rating ([4]; 31 g ai/ha) of 25 and a Plant response rating ([4]; 62 g ai/ha) of 25. For the same compound, the “Plant response rating, Barnyardgrass” value ([4]; 8 g ai/ha) was 0, the “Plant response rating, Barnyardgrass” value ([4]; 16 g ai/ha) was 0 and the pest or weed control at 31 g/ha [5, 13] was 100%. The pest or weed control at 62 g/ha [5, 13] was 100%, the “Plant response rating, Pigweed” value ([5]; 8 g ai/ha) was 98 and the “Plant response rating, Pigweed” value ([5]; 16 g ai/ha) was 100. For the same compound, the “Plant response rating, Wheat” value ([6]; 8 g ai/ha) was 0, the “Plant response rating, Wheat” value ([6]; 16 g ai/ha) was 0 and the plant injury at 62 g/ha [6, 14] was 10%. The “Plant response rating, Waterhemp” value ([7]; 8 g ai/ha) was 85, the “Plant response rating, Waterhemp” value ([7]; 16 g ai/ha) was 100 and the Plant response rating ([7]; 62 g ai/ha) was 100. For the same compound, the “Plant response rating, Galium” value ([8]; 8 g ai/ha) was 85, the “Plant response rating, Galium” value ([8]; 16 g ai/ha) was 85 and the pest or weed control at 31 g/ha [8, 15] was 90%. For the same compound, the pest or weed control at 62 g/ha [8, 15] was 95%, the plant injury at 62 g/ha (soybean (Glycine max); [16]) was 25% and the “Plant response rating, Soybean” value (soybean (Glycine max); 8 g ai/ha) was 0. The “Plant response rating, Soybean” value (soybean (Glycine max); 16 g ai/ha) was 0.
`CCOc1cc(=O)n(-c2ccc(F)cc2)nc1Cc1ccnc(C(F)(F)F)c1` [Compound 25, 5-ethoxy-2-(4-fluorophenyl)-6-[[2-(trifluoromethyl)-4-pyridinyl]methyl]-3 (2H)-pyridazinone] was tested, and the pest or weed control at 31 g/ha [1, 10] was 10%, the pest or weed control at 62 g/ha [1, 10] was 5% and the pest or weed control at 125 g/ha ([1]; Cyperus, pre-emergence, Nutsedge, Yellow, 125 g ai/ha, read-out: Plant response rating) was 15%. It also gave a pest or weed control at 250 g/ha ([1]; Cyperus, pre-emergence, Nutsedge, Yellow, 250 g ai/ha, read-out: Plant response rating) of 45%, a Plant response rating ([2]; 31 g ai/ha) of 95 and a Plant response rating ([2]; 62 g ai/ha) of 95. It also gave a Plant response rating ([2]; 125 g ai/ha) of 100, a Plant response rating ([2]; 250 g ai/ha) of 98 and a plant injury at 31 g/ha (corn (Zea mays); [11]) of 10%. For the same compound, the plant injury at 62 g/ha (corn (Zea mays); [11]) was 30%, the plant injury at 125 g/ha (corn (Zea mays); Zea mays, pre-emergence, Corn, 125 g ai/ha, read-out: Plant response rating) was 35% and the plant injury at 250 g/ha (corn (Zea mays); Zea mays, pre-emergence, Corn, 250 g ai/ha, read-out: Plant response rating) was 45%. It also gave a Plant response rating ([9]; 31 g ai/ha) of 100, a Plant response rating ([9]; 62 g ai/ha) of 100 and a Plant response rating ([9]; 125 g ai/ha) of 100. The Plant response rating ([9]; 250 g ai/ha) was 100, the pest or weed control at 31 g/ha [3, 12] was 65% and the pest or weed control at 62 g/ha [3, 12] was 75%. The pest or weed control at 125 g/ha ([3]; Sorghum halepense, pre-emergence, Johnsongrass, 125 g ai/ha, read-out: Plant response rating) was 90%, the pest or weed control at 250 g/ha ([3]; Sorghum halepense, pre-emergence, Johnsongrass, 250 g ai/ha, read-out: Plant response rating) was 98% and the Plant response rating ([4]; 31 g ai/ha) was 35. For the same compound, the Plant response rating ([4]; 62 g ai/ha) was 85, the Plant response rating ([4]; 125 g ai/ha) was 95 and the Plant response rating ([4]; 250 g ai/ha) was 98. For the same compound, the pest or weed control at 31 g/ha [5, 13] was 100%, the pest or weed control at 62 g/ha [5, 13] was 100% and the pest or weed control at 125 g/ha ([5]; Amaranthus retroflexus, pre-emergence, Pigweed, 125 g ai/ha, read-out: Plant response rating) was 98%. It also gave a pest or weed control at 250 g/ha ([5]; Amaranthus retroflexus, pre-emergence, Pigweed, 250 g ai/ha, read-out: Plant response rating) of 100%, a plant injury at 62 g/ha [6, 14] of 40% and a plant injury at 125 g/ha ([6]; Triticum aestivum, pre-emergence, Wheat, 125 g ai/ha, read-out: Plant response rating) of 50%. The plant injury at 250 g/ha ([6]; Triticum aestivum, pre-emergence, Wheat, 250 g ai/ha, read-out: Plant response rating) was 70%, the Plant response rating ([7]; 62 g ai/ha) was 100 and the Plant response rating ([7]; 125 g ai/ha) was 100. It also gave a Plant response rating ([7]; 250 g ai/ha) of 100, a pest or weed control at 31 g/ha [8, 15] of 85% and a pest or weed control at 62 g/ha [8, 15] of 90%. The pest or weed control at 125 g/ha ([8]; pre-emergence, Galium, 125 g ai/ha, read-out: Plant response rating) was 100%, the pest or weed control at 250 g/ha ([8]; pre-emergence, Galium, 250 g ai/ha, read-out: Plant response rating) was 100% and the plant injury at 62 g/ha (soybean (Glycine max); [16]) was 20%. The plant injury at 125 g/ha (soybean (Glycine max); Glycine max, pre-emergence, Soybean, 125 g ai/ha, read-out: Plant response rating) was 35% and the plant injury at 250 g/ha (soybean (Glycine max); Glycine max, pre-emergence, Soybean, 250 g ai/ha, read-out: Plant response rating) was 65%.
